Source: patent US20260125428A1, “SYNTHETIC TRIPLEX PEPTIDE NUCLEIC ACID-BASED INHIBITORS FOR CANCER THERAPY” (University of Connecticut, priority 2022, published 2026)

Experiments:
[1] = system: C-Myc oncogene; test: Gene expression (RT-PCR) in U2932 cells after combination treatment; assay type: cell-based, human
Description: (§1) Gene expression: The levels of mRNA were measured in different cell lines using real time-polymerase chain reaction (RT-PCR). Both untreated (PBMC, U2932, Raji, Daudi) and PNA treated lymphoma cells were collected at the end of treatment. Total RNA was extracted using Qiagen RNeasy® kit (USA) and concentration was measured by Nanodrop™. cDNA was synthesized using high capacity cDNA reverse transcription kit (Applied Biosystem, USA) following the recommended cycling conditions. Taqman® gene expression assay for C-Myc, EZH2, BCL2, MCL1 and GAPDH were used to amplify the respective mRNAs using the specified cycling conditions in the CFX Real-Time PCR detection system. GAPDH was used as the reference gene and fold change in mRNA expression was obtained by normalizing against the untreated cells or cells treated with HDAC inhibitors.

[2] = system: U2932 cells; test: Viability of U2932 cells, combination of PNAs with HDAC inhibitors and other drugs
Description: FIGS. 9A-D show cell viability after treatment with indicated PNAs. (9A) The viability of U2932 cells after treatment with γPNA1-NLS (8 μM), romidepsin (10 nM) and combination of γPNA1-NLS with romidepsin over 96 hours. (9B) The viability of U2932 cells after treatment with γPNA2-NLS (8 μM), romidepsin (10 nM) and combination of γPNA2-NLS with romidepsin over 96 hours. (9C) Fold change in C-Myc levels after combination of γPNA1-NLS and γPNA2-NLS with romidepsin in comparison to only romidepsin treatment. (9D) Fold change in BCL2 levels after combination of γPNA1-NLS and γPNA2-NLS with romidepsin in comparison to only romidepsin treatment.
FIGS. 10A-F show the viability of U2932 cells after indicated treatment. (10A) Viability of U2932 cells after treatment with γPNA2-NLS […], vorinostat (2.5 μM) and combination of γPNA2-NLS with vorinostat over 96 hours. (10B) The viability of U2932 cells after treatment with γPNA2-NLS (8 μM), valproic acid (2 mM) and combination of γPNA2-NLS with valproic acid over 96 hours. […] (10E) The viability of U2932 cells after treatment with CHOP (cyclophosphamide, vincristine, doxorubicin, prednisone) and combination of γPNA2-NLS with CHOP at different doses.
Cell viability: U2932 and Raji cells were seeded in 96 well plates at 20,000 cells/well. PNAs were added to the media at different concentrations (1, 2, 4, and 8 μM). […] The cell viability was then measured via trypan blue staining on day 1, 2, and 4.

[3] = system: C-Myc oncogene; test: Gene expression (RT-PCR) of C-Myc and downstream targets in U2932 cells; assay type: cell-based, human; settings: 24 h
Description: (§2) FIGS. 4A-F show effect of cellular uptake of indicated PNAs. (4A) Expression levels of C-Myc oncogene in U2932 (DLBCL), Raji and Daudi cells (Burkitt's lymphoma) in comparison to the peripheral blood mononuclear cells (PBMC). (4B) Cell viability of U2932 cells after 24 h treatment with indicated PNAs at different doses. (4C) Cell viability of Raji cells after 24 h treatment with indicated PNAs at different doses. (4D) Gene expression levels of C-Myc oncogene and its downstream targets including MCL1 and EZH2 in U2932 cells after 24 h of treatment with γPNA1-NLS, γPNA2-NLS, and ScrγPNA4-NLS at 8 μM. (4E) Gene expression levels of C-Myc oncogene and its downstream targets including BCL2 and EZH2 in Raji cells after 24 h of treatment with γPNA1-NLS, γPNA2-NLS, and ScrγPNA4-NLS at 8 μM. (4F) Gene expression levels of C-Myc in U2932 cells after 24 h treatment with γPNA2-NLS and ScrγPNA4-NLS at indicated doses.
as §1

[4] = system: C-Myc oncogene; test: Gene expression (RT-PCR) of C-Myc and downstream targets in Raji cells; assay type: cell-based, human; settings: 24 h, 8 μM
Description: as §2, §1

[5] = system: U2932 derived xenografts; test: Tumor growth and survival study in U2932 derived xenograft mice; assay type: in vivo; settings: 5 mg/kg systemic on day 1, 4, 7, and 10; for survival of the mice: saline 21 days
Description: FIGS. 7A-C show survival data of mice after systemic administration of indicated PNAs. (7A) Graph representing the tumor volume of U2932 xenografts after systemic treatment with indicated PNAs (n≥4 mice per group). PNAs were administered systemically on day 1, 4, 7, and 10 (n≥4 mice per group). (7B) The survival of U2932 derived xenograft mice after treatment with γPNA2-NLS, γPNA3, and ScrγPNA4-NLS at 5 mg/kg dose in comparison to the control (saline) mice. (7C) Complete blood count analysis of mice from different groups at the end of the study. RBC: red blood cells; WBC: white blood cells; HGB: hemoglobin; PLT: platelets; HCT: hematocrit; MCH: […]. (D) Blood chemistry analysis of mice from different groups at the end of the study. ALT: alanine transaminase; AST: aspartate transaminase; BUN: blood urea nitrogen; LDH: Lactate dehydrogenase. Results are presented as mean±SEM (n≥4).
In vivo studies in xenograft mice model: U2932 derived xenografts were generated by implanting 10 million cells subcutaneously on the lower right flank of the female NSG mice (NOD.Cg-Prkdc^scidIl2rg^tm1Wj1/SzJ, #005557, Jackson Laboratories, USA) of 5-6 weeks. The mice were maintained in the animal care facility at the University of Connecticut following the required Institutional Animal Care and Use Committee guidelines (IACUC). Mice developed palpable tumors after 3-4 weeks of implantation. Tumor dimensions including length (l), breadth (b), and height (h) were measured using a caliper and volume was calculated using the formula for ellipsoid (0.5236×lbh).
Survival study: Mice bearing tumors about 100-150 mm^3 were divided into 4 groups. Mice were treated with either γPNA2-NLS, γPNA3, Scr-γPNA4-NLS, or saline. PNAs were administered at 5 mg/kg dose on day 1, 4, 7, and 10. The change in tumor volume was measured every day. Mice were euthanized when the tumor volume reached 2000 mm^3. Blood was collected via cardiac punter in 1.5 ml tubes containing 0.5 M EDTA. Organs including tumor, liver, kidney, spleen, heart and lung were collected. Tumor fraction and all organs were kept in 10% formalin and submitted for histology. The complete blood count analysis was performed on the collected blood samples using Sysmex CBC analyzer. Plasma was separated from the blood samples and submitted to Antech diagnostic for blood chemistry analysis to quantify the levels of alanine transaminase, lactate dehydrogenase, aspartate transaminase and blood urea nitrogen.

[6] = system: Raji cells; test: Cell viability (trypan blue) of Raji cells; assay type: cell-based; settings: 24 h, different doses
Description: as §2

[7] = system: U2932 cells; test: Cell viability (trypan blue) of U2932 cells; assay type: cell-based; settings: 24 h, different doses
Description: as §2

Q: Which results are given for “JJJTJJJT-OOO-TCCCTCCCTCCGTTCTTTTTCCC-K-OOO-VKRKKKP (gamma PNA tail clamp; linkers; NLS peptide; gammaPNA to target C-Myc Exon 1; misc_feature 1 JJJTJJJT-linker- is covalently linked to the backbone, wherein J is pseudoisocytosine and the linker is 11-Amino-3,6,9-Trioxaundecanoic Acid (DCHA), represented as -OOO-; misc_feature 23 -K-linker-SEQ ID NO: 5 is covalently linked to the backbone, wherein the linker is 11-Amino-3,6,9-Trioxaundecanoic Acid (DCHA), represented as -OOO-; modified_base 1) [γPNA2-NLS]”?
A: knockdown of c-myc, combination with valproic acid ([1]; 96 h, valproic acid 2 mM): higher knockdown of c-myc; knockdown of c-myc, combination with vorinostat ([1]; 96 h, vorinostat 2.5 uM, PNA 8 μM): higher knockdown of c-myc; BCL-2 levels, combination with romidepsin in comparison to only romidepsin ([1]; day 4): reduced levels; decrease in C-Myc levels, combination with romidepsin compared with only romidepsin ([1]; day 4, PNA 8 uM, romidepsin 10 nM): > 90%; viability, combination with venetoclax ([2]; U2932 cells, over time): significant reduction in viability; combination effect with romidepsin on viability (in words) ([2]; U2932 cells, romidepsin 10 nM, PNA 8 uM): synergistic activity; viability, combination with CHOP ([2]; U2932 cells, trypan blue, 24 h and 48 h): significant reduction in viability; viability, combination with valproic acid in comparison to the individual treatments ([2]; U2932 cells, valproic acid 2 mM, PNA 8 μM, over 96 hours): significant decrease in viability; combination effect with vorinostat on viability ([2]; U2932 cells, vorinostat 2.5 μM, over 96 hours): synergistic activity; decrease in U2932 cell viability, combination with romidepsin ([2]; romidepsin 10 nM pretreatment 24 h, PNA 8 uM, day 4): approximately 80%; dose of maximum knockdown of C-Myc ([3]; different doses): 8 µM; decrease in the levels of C-Myc ([3]; RT-PCR, 8 μM): > 50%; levels of downstream targets MCL1 and EZH2 ([3]; RT-PCR, 8 μM): significant decrease in the levels of MCL1 and EZH2; decrease in the levels of C-Myc [4]: > 50%; levels of downstream targets BCL2 and EZH2 [4]: downregulation of BCL2 and EZH2; efficacy on tumor growth in comparison to γPNA3 [5]: superior efficacy; tumor growth in comparison to the control groups [5]: significantly reduced tumor growth; survival of the mice [5]: 29 days; viability of Raji cells [6]: significant decrease in the viability; viability of U2932 cells [7]: significant decrease in the viability

Q: For “X5CCTCCCTTCTTCCTTCTCCCTTGX2 (gamma PNA; NLS peptide; scramble gammaPNA; misc_feature 1 TJJJJJJTJ-linker- is covalently linked to the backbone, wherein J is pseudoisocytosine and the linker is 11-Amino-3,6,9-Trioxaundecanoic Acid (DCHA), represented as -OOO-; misc_feature 23 -K-linker-SEQ ID NO: 5 is covalently linked to the backbone, wherein the linker is 11-Amino-3,6,9-Trioxaundecanoic Acid (DCHA), represented as -OOO-; modified_base 1..23 OTHER; p) [ScrγPNA4-NLS, reference compound]”, which “knockdown of C-Myc at different doses (in words)” value ([3]; different doses) is on record?
A: no activity

Q: And the “levels of downstream targets MCL1 and EZH2” value ([3]; RT-PCR, 8 μM)?
A: no change in their levels

Q: What about the “levels of downstream targets BCL2 and EZH2” value [4] of the same substance?
A: no change in their levels

Q: And the “survival of the mice” value [5]?
A: 19.5 days

Q: And the “viability of Raji cells” value [6]?
A: no impact on the viability

Q: And the “viability of U2932 cells” value [7]?
A: no impact on the viability
